Converted amounts (≈) assume the structure as drawn.
Columns and labels:
Assay in all cases: MIC determination, microdilution method (CLSI)
Type in all cases: cell-based
[1] = tested on: Streptococcus pneumoniae ATCC 49619; conditions: for MIC: Streptococcus pneumoniae, ATCC49619, Gram(+), 24 h at 37° C., read-out: MIC Sp49619
Procedure: (§1) The MICs of compounds against all bacterial strains were determined using the microdilution method according to the Clinical and Laboratory Standards Institute guidelines. Bacteria from two or three colonies were picked from freshly streaked culture plates and incubated in culture broth for 8 h. The bacterial culture was then diluted with double-concentrated culture broth to a final concentration of 5×10^5 colony-forming unit (CFU)/mL. Testing compounds were prepared by diluting the stock solution with dimethyl sulfoxide (DMSO). The diluted bacterial suspension was added to an equal volume of a drug solution in a single microwell and incubated for 24 h at 37° C. The minimum concentration in the microwells with no visible bacterial growth was defined as the MIC. All MIC determinations were repeated twice on different days. The MIC of Compounds 1 to 15 against gram(+) and gram(−) bacteria are shown as follows: […]

[2] = tested on: Staphylococcus aureus ATCC 29213; conditions: for MIC: Staphylococcus aureus, ATCC29213, Gram(+), 24 h at 37° C., read-out: MIC Sa29213
Procedure: as §1

[3] = tested on: Pseudomonas aeruginosa K2376; conditions: for MIC: Pseudomonas aeruginosa, K2376, Gram(−), 24 h at 37° C., read-out: MIC PaK2376
Procedure: as §1

[4] = tested on: Pseudomonas aeruginosa ATCC 27853; conditions: for MIC: Pseudomonas aeruginosa, ATCC27853, Gram(−), 24 h at 37° C., read-out: MIC Pa27853
Procedure: as §1

[5] = MIC of comparative compound / MIC of Compound 1
[6] = MIC of comparative compound / MIC of Compound 2
[7] = MIC of comparative compound / MIC of Compound 6
[8] = MIC of comparative compound / MIC of Compound 7
[9] = MIC of comparative compound / MIC of Compound 8
[10] = MIC of comparative compound / MIC of Compound 11

Row | SMILES | MIC [1] [µg/mL] | MIC [2] [µg/mL] | MIC [3] [µg/mL] | MIC [4] [µg/mL] | other results
1 | COc1c(N2CC(C)C(N)C2)ccc2c(=O)c(C(=O)O)cn(C3CC3)c12 (stereo not shown) [A1, reference compound] |  |  |  |  | MIC difference (folds) Sp49619 [1, 5]: 64.5 folds; MIC difference (folds) Sa29213 [2, 5]: 16.1 folds
2 | COc1c(N2CCC(C)C(N)C2)ccc2c(=O)c(C(=O)O)cn(C3CC3)c12 (stereo not shown) [A2, reference compound] |  |  |  |  | MIC difference (folds) Sp49619 [1, 5]: 4.0 folds; MIC difference (folds) Sa29213 [2, 5]: 4.0 folds; MIC difference (folds) PaK2376 [3, 5]: 32.0 folds; MIC difference (folds) Pa27853 [4, 5]: 32.0 folds
3 | CCC1CCN(c2ccc3c(=O)c(C(=O)O)cn(C4CC4)c3c2OC)CC1N (stereo not shown) [B1, reference compound] |  |  |  |  | MIC difference (folds) Sp49619 [1, 6]: 1.0 folds; MIC difference (folds) Sa29213 [2, 6]: 8.1 folds; MIC difference (folds) PaK2376 [3, 6]: 2.0 folds; MIC difference (folds) Pa27853 [4, 6]: 2.0 folds
4 | CCC1CCN(c2ccc3c(=O)c(C(=O)O)cn(CC(F)(F)F)c3c2OC)CC1N (stereo not shown) [B2, reference compound] |  |  |  |  | MIC difference (folds) Sp49619 [1, 6]: 4.0 folds; MIC difference (folds) Sa29213 [2, 6]: 1.0 folds; MIC difference (folds) PaK2376 [3, 6]: 4.0 folds; MIC difference (folds) Pa27853 [4, 6]: 16.0 folds
5 | CCC1CCN(c2ccc3c(=O)c(C(=O)O)cn(CC(F)F)c3c2OC)CC1N (stereo not shown) [B3, reference compound] |  |  |  |  | MIC difference (folds) Sp49619 [1, 6]: 8.1 folds; MIC difference (folds) Sa29213 [2, 6]: 1.0 folds; MIC difference (folds) PaK2376 [3, 6]: 8.0 folds; MIC difference (folds) Pa27853 [4, 6]: 4.0 folds
6 | COc1c(N2CC[C@H](N)C2)ccc2c(=O)c(C(=O)O)cn(C3CC3)c12 [C1, reference compound] |  |  |  |  | MIC difference (folds) Sp49619 [1, 7]: 8.0 folds; MIC difference (folds) Sa29213 [2, 7]: 4.0 folds
7 | COc1c(N2CCC(N)C2)ccc2c(=O)c(C(=O)O)cn(C3CC3F)c12 (stereo not shown) [C2, reference compound] |  |  |  |  | MIC difference (folds) Sp49619 [1, 7]: 15.9 folds; MIC difference (folds) Sa29213 [2, 7]: 8.0 folds; MIC difference (folds) PaK2376 [3, 7]: 1.0 folds; MIC difference (folds) Pa27853 [4, 7]: 1.0 folds
8 | COc1c(N2CC[C@H](N)C2)ccc2c(=O)c(C(=O)O)cn(C(C)CF)c12 (stereo partly shown) [C3, reference compound] |  |  |  |  | MIC difference (folds) Sp49619 [1, 7]: 508.0 folds; MIC difference (folds) Sa29213 [2, 7]: 127.0 folds; MIC difference (folds) PaK2376 [3, 7]: 4.0 folds; MIC difference (folds) Pa27853 [4, 7]: 16.0 folds
9 | COc1c(N2CCC(C)C(N)C2)ccc2c(=O)c(C(=O)O)cn(C3CC3F)c12 (stereo not shown) [Compound 1, 7-(3-Amino-4-methyl-piperidin-1-yl)-1-(2-fluoro-cyclopropyl)-8-methoxy-4-oxo-1,4-dihydro-quinoline-3-carboxylic acid] | 0.031 (≈ 0.0796 µM) | 0.031 (≈ 0.0796 µM) | 1 (≈ 2.57 µM) | 0.25 (≈ 0.642 µM) | 
10 | CC[C@@H]1CCN(c2ccc3c(=O)c(C(=O)O)cn([C@@H]4C[C@@H]4F)c3c2OC)C[C@H]1N [Compound 2] | 0.031 (≈ 0.0768 µM) | 0.031 (≈ 0.0768 µM) | 2 (≈ 4.96 µM) | 0.5 (≈ 1.24 µM) | 
11 | CCC[C@@H]1CCN(c2ccc3c(=O)c(C(=O)O)cn([C@@H]4C[C@@H]4F)c3c2OC)C[C@H]1N [Compound 3] | 0.031 (≈ 0.0743 µM) | 0.031 (≈ 0.0743 µM) | 4 (≈ 9.58 µM) | 2 (≈ 4.79 µM) | 
12 | COc1c(N2CC[C@@H](C(F)(F)F)[C@H](N)C2)ccc2c(=O)c(C(=O)O)cn([C@@H]3C[C@@H]3F)c12 [Compound 4] | 0.031 (≈ 0.0699 µM) | 0.031 (≈ 0.0699 µM) | 4 (≈ 9.02 µM) | 4 (≈ 9.02 µM) | 
13 | COc1c(N2CC[C@@H](F)[C@H](N)C2)ccc2c(=O)c(C(=O)O)cn([C@@H]3C[C@@H]3F)c12 [Compound 5] | 0.063 (≈ 0.16 µM) | 0.063 (≈ 0.16 µM) | 16 (≈ 40.7 µM) | 4 (≈ 10.2 µM) | 
14 | C[C@@H]1CCN(c2ccc3c(=O)c(C(=O)O)cn([C@@H]4C[C@@H]4F)c3c2Cl)C[C@H]1N [Compound 7] | 0.031 (≈ 0.0787 µM) | 0.031 (≈ 0.0787 µM) | 2 (≈ 5.08 µM) | 2 (≈ 5.08 µM) | 
15 | CC[C@@H]1CCN(c2ccc3c(=O)c(C(=O)O)cn([C@@H]4C[C@@H]4F)c3c2Cl)C[C@H]1N [Compound 8] | 0.008 (≈ 0.0196 µM) | 0.031 (≈ 0.076 µM) | 0.5 (≈ 1.23 µM) | 0.125 (≈ 0.306 µM) | 
16 | Cc1c(N2CCC[C@H](N)C2)ccc2c(=O)c(C(=O)O)cn([C@@H]3C[C@@H]3F)c12 [Compound 9] | 0.031 (≈ 0.0863 µM) | 0.031 (≈ 0.0863 µM) | 2 (≈ 5.56 µM) | 0.5 (≈ 1.39 µM) | 
17 | CC[C@@H]1CCN(c2ccc3c(=O)c(C(=O)O)cn([C@@H]4C[C@@H]4F)c3c2C)C[C@H]1N [Compound 10] | 0.031 (≈ 0.08 µM) | 0.031 (≈ 0.08 µM) | 0.5 (≈ 1.29 µM) | 0.125 (≈ 0.323 µM) | 
18 | C[C@H]1C[C@H](N)CN(c2ccc3c(=O)c(C(=O)O)cn([C@@H]4C[C@@H]4F)c3c2Cl)C1 [Compound 11] | 0.25 (≈ 0.635 µM) | 0.031 (≈ 0.0787 µM) | 4 (≈ 10.2 µM) | 2 (≈ 5.08 µM) | 
19 | Cc1c(N2C[C@@H](C)C[C@H](N)C2)ccc2c(=O)c(C(=O)O)cn([C@@H]3C[C@@H]3F)c12 [Compound 12] | 0.125 (≈ 0.335 µM) | 0.063 (≈ 0.169 µM) | 4 (≈ 10.7 µM) | 1 (≈ 2.68 µM) | 
20 | COc1c(N2C[C@@H](N)C[C@H](F)C2)ccc2c(=O)c(C(=O)O)cn([C@@H]3C[C@@H]3F)c12 [Compound 13] | 0.031 (≈ 0.0788 µM) | 0.063 (≈ 0.16 µM) | 16 (≈ 40.7 µM) | 2 (≈ 5.08 µM) | 
21 | COc1c(N2CC[C@H](N)[C@@H](F)C2)ccc2c(=O)c(C(=O)O)cn([C@@H]3C[C@@H]3F)c12 [Compound 14] | 0.125 (≈ 0.318 µM) | 0.063 (≈ 0.16 µM) | 2 (≈ 5.08 µM) | 2 (≈ 5.08 µM) | 
22 | NC1CCN(c2ccc3c(=O)c(C(=O)O)cn([C@@H]4C[C@@H]4F)c3c2Cl)CC1 [Compound 15] | 0.063 (≈ 0.166 µM) | 0.063 (≈ 0.166 µM) | 8 (≈ 21.1 µM) | 0.25 (≈ 0.658 µM) | 
23 | CC1CCN(c2ccc3c(=O)c(C(=O)O)cn(C4CC4)c3c2Cl)CC1N (stereo not shown) [D1, reference compound] |  |  |  |  | MIC difference (folds) Sp49619 [1, 8]: 1.0 folds; MIC difference (folds) Sa29213 [2, 8]: 1.0 folds; MIC difference (folds) PaK2376 [3, 8]: 4.0 folds; MIC difference (folds) Pa27853 [4, 8]: 2.0 folds
24 | CCC1CCN(c2ccc3c(=O)c(C(=O)O)cn(CC(F)F)c3c2Cl)CC1N (stereo not shown) [E1, reference compound] |  |  |  |  | MIC difference (folds) Sp49619 [1, 9]: 15.6 folds; MIC difference (folds) Sa29213 [2, 9]: 1.0 folds; MIC difference (folds) PaK2376 [3, 9]: 8.0 folds; MIC difference (folds) Pa27853 [4, 9]: 8.0 folds
25 | CC1CC(N)CN(c2ccc3c(=O)c(C(=O)O)cn(C4CC4)c3c2Cl)C1 (stereo not shown) [F1, reference compound] |  |  |  |  | MIC difference (folds) Sp49619 [1, 10]: 2.0 folds; MIC difference (folds) Sa29213 [2, 10]: 1.0 folds; MIC difference (folds) PaK2376 [3, 10]: 1.0 folds; MIC difference (folds) Pa27853 [4, 10]: 2.0 folds
26 | CC1CC(N)CN(c2ccc3c(=O)c(C(=O)O)cn(CC(F)F)c3c2Cl)C1 (stereo not shown) [F2, reference compound] |  |  |  |  | MIC difference (folds) Sp49619 [1, 10]: 16.0 folds; MIC difference (folds) Sa29213 [2, 10]: 16.1 folds; MIC difference (folds) PaK2376 [3, 10]: 4.0 folds; MIC difference (folds) Pa27853 [4, 10]: 4.0 folds
